For the first assay, the target named is ErbB2 insYVMA (HER2-YVMA, SEQ ID NO: 2) (Homo sapiens, UniProt P04626, INS775YVMA/P1170A). The assay is described as follows: biochemical. To be noted: ErbB2 insYVMA enzyme assay; read-out: Assay 1 IC50.
Chain of EGFR wild type (EGFR WT) (P00533 25-1210): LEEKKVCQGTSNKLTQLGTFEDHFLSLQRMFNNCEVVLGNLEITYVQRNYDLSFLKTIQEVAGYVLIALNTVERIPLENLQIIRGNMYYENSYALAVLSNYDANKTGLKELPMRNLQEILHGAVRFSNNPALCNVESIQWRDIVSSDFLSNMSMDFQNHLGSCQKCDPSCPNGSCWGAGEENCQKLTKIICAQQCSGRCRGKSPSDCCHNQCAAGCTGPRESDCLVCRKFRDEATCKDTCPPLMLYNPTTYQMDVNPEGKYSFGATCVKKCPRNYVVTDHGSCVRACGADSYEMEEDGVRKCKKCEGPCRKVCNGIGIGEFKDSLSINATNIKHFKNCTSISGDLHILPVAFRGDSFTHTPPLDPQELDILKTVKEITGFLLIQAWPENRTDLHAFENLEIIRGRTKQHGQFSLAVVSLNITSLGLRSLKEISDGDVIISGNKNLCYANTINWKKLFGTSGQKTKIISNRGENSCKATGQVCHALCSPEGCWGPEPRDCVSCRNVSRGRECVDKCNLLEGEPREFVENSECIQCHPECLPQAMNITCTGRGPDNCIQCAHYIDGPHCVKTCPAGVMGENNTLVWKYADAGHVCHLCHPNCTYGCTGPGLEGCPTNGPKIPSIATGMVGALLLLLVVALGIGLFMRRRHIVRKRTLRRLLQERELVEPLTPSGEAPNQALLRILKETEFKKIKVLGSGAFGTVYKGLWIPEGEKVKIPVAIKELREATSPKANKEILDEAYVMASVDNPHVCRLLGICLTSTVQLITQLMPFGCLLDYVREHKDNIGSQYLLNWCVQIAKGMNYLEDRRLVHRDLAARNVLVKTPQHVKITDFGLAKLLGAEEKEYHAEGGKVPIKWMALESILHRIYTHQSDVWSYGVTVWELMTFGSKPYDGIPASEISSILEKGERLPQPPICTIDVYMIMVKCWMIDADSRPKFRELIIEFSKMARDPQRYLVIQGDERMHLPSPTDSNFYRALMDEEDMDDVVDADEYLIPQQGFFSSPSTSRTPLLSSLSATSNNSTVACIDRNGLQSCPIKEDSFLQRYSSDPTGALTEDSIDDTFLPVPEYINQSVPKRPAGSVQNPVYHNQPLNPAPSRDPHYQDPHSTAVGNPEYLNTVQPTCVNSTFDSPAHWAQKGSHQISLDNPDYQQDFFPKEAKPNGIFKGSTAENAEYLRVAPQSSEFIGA
Chain of EGFR (P00533 25-1210): as above
Consider `Cc1cc(Nc2ncnc3cnc(N4CCN[C@H](C)C4)nc23)ccc1Oc1ccn2ncnc2c1` [Example 352], for which the IC50 worked out at 37.5 nM.
Same read-out and setting: the figure for `Cc1cc(Nc2ncnc3cnc(N(C)C[C@@H]4COCCO4)nc23)ccc1Oc1ccc2c(c1)ncn2C` [Example 353] is 48.2 nM; for `FC(F)O[C@@H]1CCN(c2ncc3ncnc(Nc4ccc(Oc5ccn6ncnc6c5)c(Cl)c4)c3n2)C1` [Example 354] it is 27.6 nM; for `Cc1cc(Nc2ncnc3cnc(N4CCN[C@H](C(F)(F)F)C4)nc23)ccc1Oc1ccn2ncnc2c1` [Example 355] it is 19.3 nM.
On the same count and under the same terms, next, `Clc1cc(Nc2ncnc3cnc(N4CC[C@@]5(CCOC5)C4)nc23)ccc1Oc1ccn2ncnc2c1` [Example 356]: 36.1 nM.
On the same count and under the same terms, next, `Cc1cc(Nc2ncnc3cnc(N4CC[C@H](C(F)F)C4)nc23)ccc1Oc1ccn2ncnc2c1` [Example 359]: 11.7 nM; `Cc1cc(Nc2ncnc3cnc(N4CC[C@H](OC(F)F)C4)nc23)ccc1Oc1ccn2ncnc2c1` [Example 361]: 26.4 nM; `Cc1cc(Nc2ncnc3cnc(NC4=NC(C)(C)CO4)nc23)ccc1Oc1ccn2ncnc2c1` [Example 362]: 26.3 nM.
As to `Cc1cc(Nc2ncnc3cnc(N4C[C@@H]5[C@H](C4)[C@@H]4CC[C@H]5O4)nc23)ccc1Oc1ccc2c(c1)ncn2C` [Example 363], the half-inhibitory concentration (IC50) is 26.1 nM.
For `Cc1cc(Nc2ncnc3cnc(N(C)CC(C)(C)CO)nc23)ccc1Oc1ccc2c(c1)ncn2C` [Example 364], the IC50 worked out at 32.8 nM.
Still for that read-out and setting: the figure for `Cc1cc(Nc2ncnc3cnc(N4CC[C@](C)(O)C4)nc23)ccc1Oc1ccn2ncnc2c1` [Example 365] is 38.4 nM; for `Cc1cc(Nc2ncnc3cnc(N(C)[C@H]4C[C@H](O)C4)nc23)ccc1Oc1ccn2ncnc2c1` [Example 366] it is 8.3 nM; for `N#C[C@H]1CCN(c2ncc3ncnc(Nc4ccc(Oc5ccn6ncnc6c5)c(Cl)c4)c3n2)C1` [Example 367] it is 16.5 nM.
Still for that read-out and setting: next, `CN(c1ncc2ncnc(Nc3ccc(Oc4ccn5ncnc5c4)c(Cl)c3)c2n1)[C@@H]1CCCOC1` [Example 368]: 3.6 nM.

A further assay deals with ErbB2 WT (Homo sapiens (Human), UniProt P04626). The assay is described as follows: ErbB enzyme assay (CisBio HTRF KinEASE-TK), Assay 2. The class given is biochemical.
Chain of ErbB2 WT (P04626 23-1255): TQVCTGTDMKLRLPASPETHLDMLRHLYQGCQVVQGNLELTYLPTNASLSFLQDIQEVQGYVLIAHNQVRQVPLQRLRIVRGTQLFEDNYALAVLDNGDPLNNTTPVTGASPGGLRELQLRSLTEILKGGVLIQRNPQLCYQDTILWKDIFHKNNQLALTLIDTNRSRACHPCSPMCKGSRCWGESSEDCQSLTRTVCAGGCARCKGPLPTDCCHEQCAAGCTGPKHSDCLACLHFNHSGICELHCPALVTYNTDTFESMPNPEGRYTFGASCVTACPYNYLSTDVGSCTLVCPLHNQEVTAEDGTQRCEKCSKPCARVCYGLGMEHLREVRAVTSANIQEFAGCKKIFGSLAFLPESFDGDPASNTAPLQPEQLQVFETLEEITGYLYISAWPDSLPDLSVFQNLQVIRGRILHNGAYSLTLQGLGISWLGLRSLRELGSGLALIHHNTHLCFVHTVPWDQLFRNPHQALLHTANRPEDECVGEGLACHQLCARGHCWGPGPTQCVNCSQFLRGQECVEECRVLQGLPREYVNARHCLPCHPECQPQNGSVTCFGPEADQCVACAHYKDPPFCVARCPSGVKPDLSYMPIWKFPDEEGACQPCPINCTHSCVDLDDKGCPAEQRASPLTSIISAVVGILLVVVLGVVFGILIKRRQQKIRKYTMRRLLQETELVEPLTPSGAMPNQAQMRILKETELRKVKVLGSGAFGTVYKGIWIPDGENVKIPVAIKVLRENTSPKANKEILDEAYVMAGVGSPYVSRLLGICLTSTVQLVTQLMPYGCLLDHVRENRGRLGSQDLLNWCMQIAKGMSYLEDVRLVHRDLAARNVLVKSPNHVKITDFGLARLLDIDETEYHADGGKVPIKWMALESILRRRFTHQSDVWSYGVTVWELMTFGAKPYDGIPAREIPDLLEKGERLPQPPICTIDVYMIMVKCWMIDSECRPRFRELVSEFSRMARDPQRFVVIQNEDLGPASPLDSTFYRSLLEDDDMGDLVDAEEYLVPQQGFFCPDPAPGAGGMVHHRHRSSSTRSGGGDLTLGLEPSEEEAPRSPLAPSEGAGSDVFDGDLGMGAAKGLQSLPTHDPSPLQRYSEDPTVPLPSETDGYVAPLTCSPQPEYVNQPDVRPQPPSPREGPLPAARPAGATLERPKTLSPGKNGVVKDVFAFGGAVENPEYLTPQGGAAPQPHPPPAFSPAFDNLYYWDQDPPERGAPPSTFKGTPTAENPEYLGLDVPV
Details: not given
In short, it runs like this: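 Readout is HTRF KinEASE-TK, using Sa-XL665 and cryptate antibody for 1 h at 22 °C, as percent of control between DMSO-only (100) and pre-quenched (0) reactions. The kinase reaction runs 30 min at 22 °C with 1 mM ATP and 250 nM biotinylated TK substrate, in HEPES pH 7.4 with MgCl2 and 2% DMSO.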
A general note: Time-resolved FRET reads energy transfer from a long-lived donor to a nearby acceptor.
Regarding `Cc1cc(Nc2ncnc3cnc(N4CCN[C@H](C)C4)nc23)ccc1Oc1ccn2ncnc2c1` [Example 352], half-maximal inhibition (IC50) required 131 nM.
In turn, `Cc1cc(Nc2ncnc3cnc(N(C)C[C@@H]4COCCO4)nc23)ccc1Oc1ccc2c(c1)ncn2C` [Example 353] came in with an IC50 of 47.5 nM.
In the case of `FC(F)O[C@@H]1CCN(c2ncc3ncnc(Nc4ccc(Oc5ccn6ncnc6c5)c(Cl)c4)c3n2)C1` [Example 354], the IC50 worked out at 29 nM.
Compound `Cc1cc(Nc2ncnc3cnc(N4CCN[C@H](C(F)(F)F)C4)nc23)ccc1Oc1ccn2ncnc2c1` [Example 355] gave a 50% inhibitory concentration (IC50) of 24.5 nM.
Still for that read-out and setting: the figure for `Clc1cc(Nc2ncnc3cnc(N4CC[C@@]5(CCOC5)C4)nc23)ccc1Oc1ccn2ncnc2c1` [Example 356] is 92.8 nM.
On the same count and under the same terms, the figure for `Cc1cc(Nc2ncnc3cnc(N4CC[C@H](C(F)F)C4)nc23)ccc1Oc1ccn2ncnc2c1` [Example 359] is 32.7 nM.
`Cc1cc(Nc2ncnc3cnc(N4CC[C@H](OC(F)F)C4)nc23)ccc1Oc1ccn2ncnc2c1` [Example 361] had an IC50 of 39.2 nM.
Still for that read-out and setting: the figure for `Cc1cc(Nc2ncnc3cnc(NC4=NC(C)(C)CO4)nc23)ccc1Oc1ccn2ncnc2c1` [Example 362] is 32.1 nM; for `Cc1cc(Nc2ncnc3cnc(N4C[C@@H]5[C@H](C4)[C@@H]4CC[C@H]5O4)nc23)ccc1Oc1ccc2c(c1)ncn2C` [Example 363] it is 72.4 nM; for `Cc1cc(Nc2ncnc3cnc(N(C)CC(C)(C)CO)nc23)ccc1Oc1ccc2c(c1)ncn2C` [Example 364] it is 29.5 nM.
`Cc1cc(Nc2ncnc3cnc(N4CC[C@](C)(O)C4)nc23)ccc1Oc1ccn2ncnc2c1` [Example 365] registered a concentration for half-maximal inhibition (IC50) of 81.8 nM.
Turning to `Cc1cc(Nc2ncnc3cnc(N(C)[C@H]4C[C@H](O)C4)nc23)ccc1Oc1ccn2ncnc2c1` [Example 366], the concentration for half-maximal inhibition (IC50) turned out to be 6.7 nM.
Same read-out and setting: next, `N#C[C@H]1CCN(c2ncc3ncnc(Nc4ccc(Oc5ccn6ncnc6c5)c(Cl)c4)c3n2)C1` [Example 367]: 64.7 nM; `CN(c1ncc2ncnc(Nc3ccc(Oc4ccn5ncnc5c4)c(Cl)c3)c2n1)[C@@H]1CCCOC1` [Example 368]: 4.8 nM.

The next assay has as its target EGFR wild type (EGFR WT) (Homo sapiens (Human), UniProt P00533). Description: Cellular phosphorylation assay, EGF-stimulated EGFR phosphorylation in engineered NIH 3T3 cells, Phospho-EGFR DuoSet IC ELISA, Assay 5. The format is cell-based.
Details: not given
In short, it runs like this: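 Phospho-EGFR ELISA on lysates of engineered NIH 3T3 EGFR WT cells, IC50 derived from concentration curves. Cells plated at 20,000/well overnight, given compound dilutions 1 h at 37 °C, then rEGF 100 ng/ml for a further 10 min before lysis.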
Take `Cc1cc(Nc2ncnc3cnc(N4CCN[C@H](C)C4)nc23)ccc1Oc1ccn2ncnc2c1` [Example 352]: the 50% inhibitory concentration (IC50) was at least 5 µM.
`Cc1cc(Nc2ncnc3cnc(N(C)C[C@@H]4COCCO4)nc23)ccc1Oc1ccc2c(c1)ncn2C` [Example 353] displayed an IC50 of at least 5 µM.
In turn, `FC(F)O[C@@H]1CCN(c2ncc3ncnc(Nc4ccc(Oc5ccn6ncnc6c5)c(Cl)c4)c3n2)C1` [Example 354] registered an IC50 of at least 5 µM.
In turn, `Cc1cc(Nc2ncnc3cnc(N4CCN[C@H](C(F)(F)F)C4)nc23)ccc1Oc1ccn2ncnc2c1` [Example 355] registered an IC50 of at least 5 µM.
On the same count and under the same terms, next, `Clc1cc(Nc2ncnc3cnc(N4CC[C@@]5(CCOC5)C4)nc23)ccc1Oc1ccn2ncnc2c1` [Example 356]: at least 5 µM; `Cc1cc(Nc2ncnc3cnc(N4CC[C@H](C(F)F)C4)nc23)ccc1Oc1ccn2ncnc2c1` [Example 359]: at least 5 µM; `Cc1cc(Nc2ncnc3cnc(N4CC[C@H](OC(F)F)C4)nc23)ccc1Oc1ccn2ncnc2c1` [Example 361]: at least 5 µM.
Same read-out and setting: next, `Cc1cc(Nc2ncnc3cnc(NC4=NC(C)(C)CO4)nc23)ccc1Oc1ccn2ncnc2c1` [Example 362]: at least 5 µM.
The same measure, in the same setting: the figure for `Cc1cc(Nc2ncnc3cnc(N4C[C@@H]5[C@H](C4)[C@@H]4CC[C@H]5O4)nc23)ccc1Oc1ccc2c(c1)ncn2C` [Example 363] is at least 5 µM; for `Cc1cc(Nc2ncnc3cnc(N(C)CC(C)(C)CO)nc23)ccc1Oc1ccc2c(c1)ncn2C` [Example 364] it is at least 5 µM.
As for `Cc1cc(Nc2ncnc3cnc(N4CC[C@](C)(O)C4)nc23)ccc1Oc1ccn2ncnc2c1` [Example 365], the IC50 was at least 5 µM.
Same read-out and setting: the figure for `Cc1cc(Nc2ncnc3cnc(N(C)[C@H]4C[C@H](O)C4)nc23)ccc1Oc1ccn2ncnc2c1` [Example 366] is at least 5 µM; for `N#C[C@H]1CCN(c2ncc3ncnc(Nc4ccc(Oc5ccn6ncnc6c5)c(Cl)c4)c3n2)C1` [Example 367] it is at least 5 µM; for `CN(c1ncc2ncnc(Nc3ccc(Oc4ccn5ncnc5c4)c(Cl)c3)c2n1)[C@@H]1CCCOC1` [Example 368] it is at least 5 µM.

A further assay deals with ErbB2 with Exon 20 YVMA insertion (HER2-YVMA) (Homo sapiens (Human), UniProt P04626, INS775YVMA). The assay is described as follows: Cellular phosphorylation assay, constitutive ErbB2 phosphorylation (Y1196) in engineered NIH 3T3 cells, Assay 4. The format is cell-based.
Chain of ErbB2 with Exon 20 YVMA insertion (HER2-YVMA) (P04626 other isoform, or with tags, fused parts or gaps ins YVMA behind 775): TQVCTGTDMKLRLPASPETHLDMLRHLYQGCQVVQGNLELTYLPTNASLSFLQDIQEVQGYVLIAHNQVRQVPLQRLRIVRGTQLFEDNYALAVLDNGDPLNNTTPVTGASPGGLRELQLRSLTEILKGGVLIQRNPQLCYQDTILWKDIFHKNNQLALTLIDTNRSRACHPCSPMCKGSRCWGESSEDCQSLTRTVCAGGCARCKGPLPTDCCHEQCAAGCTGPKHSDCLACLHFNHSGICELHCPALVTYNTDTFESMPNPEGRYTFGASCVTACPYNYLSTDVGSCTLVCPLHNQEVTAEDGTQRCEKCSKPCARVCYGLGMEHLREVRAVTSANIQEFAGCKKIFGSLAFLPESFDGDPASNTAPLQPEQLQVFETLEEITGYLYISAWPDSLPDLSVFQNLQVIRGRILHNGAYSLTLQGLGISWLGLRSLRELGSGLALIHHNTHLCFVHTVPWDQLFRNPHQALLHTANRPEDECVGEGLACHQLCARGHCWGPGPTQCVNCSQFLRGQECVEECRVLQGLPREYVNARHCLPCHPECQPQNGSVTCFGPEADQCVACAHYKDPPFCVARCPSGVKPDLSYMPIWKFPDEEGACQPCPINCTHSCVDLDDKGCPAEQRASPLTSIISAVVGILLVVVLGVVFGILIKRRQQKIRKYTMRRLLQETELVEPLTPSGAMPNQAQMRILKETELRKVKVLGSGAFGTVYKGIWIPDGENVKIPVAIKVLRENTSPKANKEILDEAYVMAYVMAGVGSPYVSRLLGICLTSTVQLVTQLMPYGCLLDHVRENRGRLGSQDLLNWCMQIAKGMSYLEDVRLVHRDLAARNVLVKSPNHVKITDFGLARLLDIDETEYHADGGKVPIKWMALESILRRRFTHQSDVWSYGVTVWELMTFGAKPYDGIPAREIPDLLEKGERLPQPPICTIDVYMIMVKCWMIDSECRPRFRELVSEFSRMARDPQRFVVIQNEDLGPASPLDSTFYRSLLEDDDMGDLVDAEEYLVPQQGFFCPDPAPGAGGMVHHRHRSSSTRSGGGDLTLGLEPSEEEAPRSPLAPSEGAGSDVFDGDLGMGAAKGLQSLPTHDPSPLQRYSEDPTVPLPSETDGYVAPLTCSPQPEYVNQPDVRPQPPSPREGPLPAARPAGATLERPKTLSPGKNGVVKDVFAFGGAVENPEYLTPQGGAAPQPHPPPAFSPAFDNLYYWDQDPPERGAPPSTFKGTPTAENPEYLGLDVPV
Details: not given
The essentials: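 In-cell Western in NIH 3T3 cells carrying ErbB2 exon 20 YVMA insertion, with no ligand stimulation. One hour compound exposure at 37 °C before fixation and anti-pY1196 plus GAPDH staining with dual-wavelength fluorescence. IC50 derived after GAPDH normalization.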
Compound `Cc1cc(Nc2ncnc3cnc(N4CCN[C@H](C)C4)nc23)ccc1Oc1ccn2ncnc2c1` [Example 352] had a half-inhibitory concentration (IC50) of 147 nM.
Still for that read-out and setting: next, `Cc1cc(Nc2ncnc3cnc(N(C)C[C@@H]4COCCO4)nc23)ccc1Oc1ccc2c(c1)ncn2C` [Example 353]: 18.1 nM; `FC(F)O[C@@H]1CCN(c2ncc3ncnc(Nc4ccc(Oc5ccn6ncnc6c5)c(Cl)c4)c3n2)C1` [Example 354]: 72.2 nM; `Cc1cc(Nc2ncnc3cnc(N4CCN[C@H](C(F)(F)F)C4)nc23)ccc1Oc1ccn2ncnc2c1` [Example 355]: 182 nM.
Turning to `Clc1cc(Nc2ncnc3cnc(N4CC[C@@]5(CCOC5)C4)nc23)ccc1Oc1ccn2ncnc2c1` [Example 356], 270 nM corresponded to half-maximal inhibition (IC50).
Consider `Cc1cc(Nc2ncnc3cnc(N4CC[C@H](C(F)F)C4)nc23)ccc1Oc1ccn2ncnc2c1` [Example 359], for which inhibition was half-maximal at 278 nM (IC50).
Compound `Cc1cc(Nc2ncnc3cnc(N4CC[C@H](OC(F)F)C4)nc23)ccc1Oc1ccn2ncnc2c1` [Example 361] displayed an IC50 of 312 nM.
On to `Cc1cc(Nc2ncnc3cnc(NC4=NC(C)(C)CO4)nc23)ccc1Oc1ccn2ncnc2c1` [Example 362], for which the 50% inhibitory concentration (IC50) is 1260 nM.
The same measure, in the same setting: next, `Cc1cc(Nc2ncnc3cnc(N4C[C@@H]5[C@H](C4)[C@@H]4CC[C@H]5O4)nc23)ccc1Oc1ccc2c(c1)ncn2C` [Example 363]: 26.2 nM.
Compound `Cc1cc(Nc2ncnc3cnc(N(C)CC(C)(C)CO)nc23)ccc1Oc1ccc2c(c1)ncn2C` [Example 364] showed a half-maximal inhibitory concentration (IC50) of 25.7 nM.
As to `Cc1cc(Nc2ncnc3cnc(N4CC[C@](C)(O)C4)nc23)ccc1Oc1ccn2ncnc2c1` [Example 365], 132 nM corresponded to half-maximal inhibition (IC50).
For the compound `Cc1cc(Nc2ncnc3cnc(N(C)[C@H]4C[C@H](O)C4)nc23)ccc1Oc1ccn2ncnc2c1` [Example 366], half-maximal inhibition (IC50) required 76.6 nM.
The same measure, in the same setting: next, `N#C[C@H]1CCN(c2ncc3ncnc(Nc4ccc(Oc5ccn6ncnc6c5)c(Cl)c4)c3n2)C1` [Example 367]: 264 nM.
In turn, `CN(c1ncc2ncnc(Nc3ccc(Oc4ccn5ncnc5c4)c(Cl)c3)c2n1)[C@@H]1CCCOC1` [Example 368] showed an IC50 of 17.4 nM.

Another assay addresses EGFR (Homo sapiens (Human), UniProt P00533). Description: ErbB enzyme assay (CisBio HTRF KinEASE-TK), Assay 3. The format is biochemical.
Details: not given
In short, it runs like this:
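First, enzyme was reacted with compound, 1 mM ATP and 250 nM biotinylated tyrosine-kinase peptide for 30 min at 22 °C at pH 7.4. Next, streptavidin-XL665 and cryptate antibody were added for 1 h. Finally, HTRF ratios were converted to POC and fitted to yield IC50.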
Regarding `Cc1cc(Nc2ncnc3cnc(N4CCN[C@H](C)C4)nc23)ccc1Oc1ccn2ncnc2c1` [Example 352], the IC50 is at least 10 µM.
Still for that read-out and setting: the figure for `Cc1cc(Nc2ncnc3cnc(N(C)C[C@@H]4COCCO4)nc23)ccc1Oc1ccc2c(c1)ncn2C` [Example 353] is at least 10 µM; for `FC(F)O[C@@H]1CCN(c2ncc3ncnc(Nc4ccc(Oc5ccn6ncnc6c5)c(Cl)c4)c3n2)C1` [Example 354] it is at least 10 µM; for `Cc1cc(Nc2ncnc3cnc(N4CCN[C@H](C(F)(F)F)C4)nc23)ccc1Oc1ccn2ncnc2c1` [Example 355] it is 5.04 µM.
The same measure, in the same setting: the figure for `Clc1cc(Nc2ncnc3cnc(N4CC[C@@]5(CCOC5)C4)nc23)ccc1Oc1ccn2ncnc2c1` [Example 356] is at least 10 µM; for `Cc1cc(Nc2ncnc3cnc(N4CC[C@H](C(F)F)C4)nc23)ccc1Oc1ccn2ncnc2c1` [Example 359] it is at least 10 µM; for `Cc1cc(Nc2ncnc3cnc(N4CC[C@H](OC(F)F)C4)nc23)ccc1Oc1ccn2ncnc2c1` [Example 361] it is 7.48 µM.
As for `Cc1cc(Nc2ncnc3cnc(NC4=NC(C)(C)CO4)nc23)ccc1Oc1ccn2ncnc2c1` [Example 362], the IC50 came out at 3.39 µM.
For `Cc1cc(Nc2ncnc3cnc(N4C[C@@H]5[C@H](C4)[C@@H]4CC[C@H]5O4)nc23)ccc1Oc1ccc2c(c1)ncn2C` [Example 363], the 50% inhibitory concentration (IC50) is at least 10 µM.
In the case of `Cc1cc(Nc2ncnc3cnc(N(C)CC(C)(C)CO)nc23)ccc1Oc1ccc2c(c1)ncn2C` [Example 364], inhibition was half-maximal at 2.68 µM (IC50).
`Cc1cc(Nc2ncnc3cnc(N4CC[C@](C)(O)C4)nc23)ccc1Oc1ccn2ncnc2c1` [Example 365] showed a 50% inhibitory concentration (IC50) of 7.57 µM.
Still for that read-out and setting: the figure for `Cc1cc(Nc2ncnc3cnc(N(C)[C@H]4C[C@H](O)C4)nc23)ccc1Oc1ccn2ncnc2c1` [Example 366] is 0.303 µM; for `N#C[C@H]1CCN(c2ncc3ncnc(Nc4ccc(Oc5ccn6ncnc6c5)c(Cl)c4)c3n2)C1` [Example 367] it is at least 10 µM.
`CN(c1ncc2ncnc(Nc3ccc(Oc4ccn5ncnc5c4)c(Cl)c3)c2n1)[C@@H]1CCCOC1` [Example 368] displayed an IC50 of 0.303 µM.

One may read the IC50 as the concentration that inhibits the measured activity by half.
